Data on 1 compound can be found in patent US8673905B2, “Imidazo pyrazines” (Hoffmann-La Roche Inc., priority 2011, dated 2014).

For one experiment, the target named is human recombinant FLT3 (Homo sapiens (Human), UniProt P36888). The experiment is described as follows: FLT3 Kinase Assay (Caliper mobility shift). It counts as biochemical. As to conditions: 100 μM ATP, 28° C., 90 minutes; read-out: Enzyme IC50 (μM) FLT3. The method, then: After incubation, the reaction product was analyzed by electrophoretic mobility shift run on Caliper by manufacturer's protocol.
Chain of human recombinant FLT3 (P36888 27-993): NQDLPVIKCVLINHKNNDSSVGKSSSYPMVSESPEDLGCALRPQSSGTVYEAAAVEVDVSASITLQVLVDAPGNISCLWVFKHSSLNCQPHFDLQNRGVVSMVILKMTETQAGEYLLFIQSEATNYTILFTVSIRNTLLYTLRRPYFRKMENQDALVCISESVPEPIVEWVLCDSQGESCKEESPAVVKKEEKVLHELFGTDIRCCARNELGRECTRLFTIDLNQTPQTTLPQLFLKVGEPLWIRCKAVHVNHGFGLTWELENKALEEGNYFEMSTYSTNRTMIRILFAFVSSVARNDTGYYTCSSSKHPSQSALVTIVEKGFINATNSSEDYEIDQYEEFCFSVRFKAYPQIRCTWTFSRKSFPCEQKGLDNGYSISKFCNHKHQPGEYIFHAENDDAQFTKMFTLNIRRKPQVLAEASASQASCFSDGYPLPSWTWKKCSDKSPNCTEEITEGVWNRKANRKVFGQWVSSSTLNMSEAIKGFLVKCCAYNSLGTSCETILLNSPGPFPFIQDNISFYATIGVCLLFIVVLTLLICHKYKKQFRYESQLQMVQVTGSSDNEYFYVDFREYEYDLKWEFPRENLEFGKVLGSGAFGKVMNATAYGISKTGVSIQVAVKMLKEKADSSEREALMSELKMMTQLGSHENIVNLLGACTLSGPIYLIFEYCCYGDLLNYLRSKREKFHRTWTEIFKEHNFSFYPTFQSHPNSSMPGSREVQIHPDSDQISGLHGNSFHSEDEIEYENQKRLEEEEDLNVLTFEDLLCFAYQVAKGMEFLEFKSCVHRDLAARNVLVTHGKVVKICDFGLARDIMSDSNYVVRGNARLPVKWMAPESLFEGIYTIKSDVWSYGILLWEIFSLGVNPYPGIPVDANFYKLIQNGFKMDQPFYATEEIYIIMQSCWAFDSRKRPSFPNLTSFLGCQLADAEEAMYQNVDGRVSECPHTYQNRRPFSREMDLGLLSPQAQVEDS

A further experiment deals with Molm13 cells. The experiment is described as follows: Cell Glo Viability Assay (Luminescence), Molm13. As to conditions: Homo sapiens, MOLM-13, 120 h, 5 days, CellTiter-Glo, read-out: Cellular EC50 (μM) Molm13. It counts as cell-based. On the procedure: (§1) Molm13 cells, a human acute monocytic leukemia cell line, and MV4-11 cells, a human leukemia cell line known to express mutated FLT3 cells (both from ATCC) were seeded separately at 2000 cells per well in 90 μL of RPMI1640 medium supplemented with 10% FBS in 96-well black-walled plates (BD Falcon). Test compounds were diluted at ten times of assay concentrations, 10 μL was added into duplicate wells. Plates were incubated at 37° C. with 5% CO2 for 5 days. Cell viability was assayed by CellTiter-Glo® Luminescent Cell Viability Assay (Promega) following manufacturer's protocol.
(§2) The results of this assay, given as EC50 values, indicate the concentration of test compound that inhibits tumor cell proliferation by 50%.

The subject of the next experiment is MV4-11 cells. The experiment in a line: Cell Glo Viability Assay (Luminescence), MV4-11. It counts as cell-based. The following applies: Homo sapiens, 120 h; MV4-11 cells (mutated FLT3), 5 days, CellTiter-Glo; read-out: Cellular EC50 (μM) MV4-11. The method, then:
as §1, §2

Where a name gives a salt, the structure may show the parent alone.

By IC50 is commonly meant the point on the concentration scale where inhibition reaches its midpoint. Broadly, the EC50 is the concentration that produces a half-maximal response.

In the case of `NCC(Nc1cccc(-c2cnc3c(NCCN4CCOCC4)nccn23)n1)c1cccc(Cl)c1` (stereo not drawn) [Example 91, 1-(3-Chloro-phenyl)-N-1-{6-[8-(2-morpholin-4-yl-ethylamino)-imidazo[1,2-a]pyrazin-3-yl]-pyridin-2-yl}-ethane-1,2-diamine hydrochloride], the 50% inhibitory concentration (IC50) at human recombinant FLT3 was under 0.005 µM. In addition, the EC50 in the experiment on Molm13 cells and in the experiment on MV4-11 cells was under 0.014 µM each time.
